Tests used:
[1] = system: Strain BSHP7014 (mtnW:lacZ amyE::pxyl mtnXYZ); experiment: Toxicity of MTR for BSHP7014 strain (paper disc on ED1 minimal medium plates); type: cell-based, Bacillus subtilis; settings: inferred from MTR toxicity in mtnU or mtnW mutants with functional mtnY
Procedure: Toxicity of MTR for BSHP7014 strain. Strain BSHP7014 (mtnW:lacZ amyE::pxyl mtnXYZ) was grown on ED1 minimal medium plates in the presence of sulfate as sulfur source (panel A) or in the absence of any added sulfur source (agar as sole sulfur source, panel B). Xylose was added to the medium in order to trigger the expression of mtnXYZ from the pxyl promoter, 10 μl of methionine (met) or MTR was adsorbed on paper discs and plates were incubated over-night at 37° C. Methionine was used as a control for growth and/or toxicity of the sulfur source.
Two genes in the pathway are dispensable, mtnV and mtnX. The first one encodes a transaminase of which there are nine putative paralogs in the genome of B. subtilis (YwfG, AlaT, AspB, PatA, YhdR, YdfD, PatB, YisV, and HisC). In the same way, MtnX (YkrX) is a member of the phosphatase family pfam00702 ([12], FIG. 6), and therefore of a ubiquitous class of hydrolases (several phosphatase genes, in particular are present in the genome of B. subtilis). This is likely to account for the lack of phenotype under our growth conditions. […] In contrast, we discovered that MTR is toxic when the distal genes are present (when used as sole sulfur source or in the presence of sulfate, see FIG. 7). Because of the weak phenotype of a mtnZ mutant and the absence of phenotype of a mtnX mutant, we can be confident that MtnY acts before MtnW (this is a common feature in operons, where it is generally observed that the more distal genes code for proteins acting in the more proximate steps of the pathway).
Bacterial strains and plasmids, and growth media: E. coli and B. subtilis strains as well as plasmids used in this work are listed in Table 3. E. coli TG1 and XL1-Blue were used for cloning experiments (TG1 for single cross-over recombination and XL1-Blue for double cross-over recombination). Despite the fact that there are no public regulations yet in this domain in China, all experiments were performed in accordance with the European regulation requirements concerning the contained use of Genetically Modified Organisms of Group-I (French agreement N^o 2735). […] In the latter case, 10 [μl of the sulfur source under investigation was applicated onto paper discs (MTR, 200 mM stock solution and methionine, 100 mM stock solution) deposited at the center of the plate, after bacteria had been uniformly spread at the surface of the plate, and growth was measured around the disK. […] The optical density (OD) of bacterial cultures was measured at 600 nm. […]

B. subtilis [2] = experiment: Growth in the presence of trifluoromethylthioribose (3F-MTR), resistance phenotype; type: cell-based, Bacillus subtilis; settings: inactivation of mtnK, mtnS, mtnY and mtnW
Description: Mutants were obtained by transformation of a wild type strain with a random transposon library, selecting for growth in the presence of trifluoromethylthioribose (3F-MTR). The mutants were subsequently tested for growth on plates lacking sulfur source but supplemented with MTR: only those that could not grow were retained for further study. In order to ascertain that the resistant phenotype was not coming from secondary mutations but was directly related to the transposon insert, the chromosome DNA was extracted from each putative mutant and back transformed into a wild type strain selecting for the transposon antibiotic marker. The 3F-MTR and MTR phenotypes were subsequently tested and only those mutants that passed the test were retained. The insertion positions of the transposons were then sequenced. […]
Bacterial strains and plasmids, and growth media: E. coli and B. subtilis strains as well as plasmids used in this work are listed in Table 3. […] In the latter case, 10 [μl of the sulfur source under investigation was applicated onto paper discs (MTR, 200 mM stock solution and methionine, 100 mM stock solution) deposited at the center of the plate, after bacteria had been uniformly spread at the surface of the plate, and growth was measured around the disK. […] The optical density (OD) of bacterial cultures was measured at 600 nm. […]

B. subtilis [3] = settings: if the methyl sulfur moiety of the molecule is recycled; reference [13]; cited from earlier work

CSCC(O)C(O)C(=O)COP(=O)(O)O (stereo not drawn) [5-thiomethylribulose-1-phosphate]
Toxicity to the cells [1]: toxic

O=C[C@H](O)[C@H](O)[C@H](O)CSC(F)(F)F [3F-MTR, 5-thio-5-5-S-trifluoromethyl-D-ribose]
Phenotype towards 3F-MTR (B. subtilis [2]): resistance
Toxicity of the MTR analog (B. subtilis [3]): toxic

Reference: US20040019066A1, “Methionine salvage pathway in bacillus” (priority 2002, published 2004)
